The source of these data is PubChem BioAssay AID652164 (Sanford-Burnham Center for Chemical Genomics, 2013).

Each structure is given as a SMILES string. pIC50: −log10 of the molar value. Active and inactive are the calls of the source.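 Rule for the calls: active = IC50 at or below 20 µM; inactive = the rest.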

Fatty acid synthase (Homo sapiens), sequence (P49327 whole entry, looked up): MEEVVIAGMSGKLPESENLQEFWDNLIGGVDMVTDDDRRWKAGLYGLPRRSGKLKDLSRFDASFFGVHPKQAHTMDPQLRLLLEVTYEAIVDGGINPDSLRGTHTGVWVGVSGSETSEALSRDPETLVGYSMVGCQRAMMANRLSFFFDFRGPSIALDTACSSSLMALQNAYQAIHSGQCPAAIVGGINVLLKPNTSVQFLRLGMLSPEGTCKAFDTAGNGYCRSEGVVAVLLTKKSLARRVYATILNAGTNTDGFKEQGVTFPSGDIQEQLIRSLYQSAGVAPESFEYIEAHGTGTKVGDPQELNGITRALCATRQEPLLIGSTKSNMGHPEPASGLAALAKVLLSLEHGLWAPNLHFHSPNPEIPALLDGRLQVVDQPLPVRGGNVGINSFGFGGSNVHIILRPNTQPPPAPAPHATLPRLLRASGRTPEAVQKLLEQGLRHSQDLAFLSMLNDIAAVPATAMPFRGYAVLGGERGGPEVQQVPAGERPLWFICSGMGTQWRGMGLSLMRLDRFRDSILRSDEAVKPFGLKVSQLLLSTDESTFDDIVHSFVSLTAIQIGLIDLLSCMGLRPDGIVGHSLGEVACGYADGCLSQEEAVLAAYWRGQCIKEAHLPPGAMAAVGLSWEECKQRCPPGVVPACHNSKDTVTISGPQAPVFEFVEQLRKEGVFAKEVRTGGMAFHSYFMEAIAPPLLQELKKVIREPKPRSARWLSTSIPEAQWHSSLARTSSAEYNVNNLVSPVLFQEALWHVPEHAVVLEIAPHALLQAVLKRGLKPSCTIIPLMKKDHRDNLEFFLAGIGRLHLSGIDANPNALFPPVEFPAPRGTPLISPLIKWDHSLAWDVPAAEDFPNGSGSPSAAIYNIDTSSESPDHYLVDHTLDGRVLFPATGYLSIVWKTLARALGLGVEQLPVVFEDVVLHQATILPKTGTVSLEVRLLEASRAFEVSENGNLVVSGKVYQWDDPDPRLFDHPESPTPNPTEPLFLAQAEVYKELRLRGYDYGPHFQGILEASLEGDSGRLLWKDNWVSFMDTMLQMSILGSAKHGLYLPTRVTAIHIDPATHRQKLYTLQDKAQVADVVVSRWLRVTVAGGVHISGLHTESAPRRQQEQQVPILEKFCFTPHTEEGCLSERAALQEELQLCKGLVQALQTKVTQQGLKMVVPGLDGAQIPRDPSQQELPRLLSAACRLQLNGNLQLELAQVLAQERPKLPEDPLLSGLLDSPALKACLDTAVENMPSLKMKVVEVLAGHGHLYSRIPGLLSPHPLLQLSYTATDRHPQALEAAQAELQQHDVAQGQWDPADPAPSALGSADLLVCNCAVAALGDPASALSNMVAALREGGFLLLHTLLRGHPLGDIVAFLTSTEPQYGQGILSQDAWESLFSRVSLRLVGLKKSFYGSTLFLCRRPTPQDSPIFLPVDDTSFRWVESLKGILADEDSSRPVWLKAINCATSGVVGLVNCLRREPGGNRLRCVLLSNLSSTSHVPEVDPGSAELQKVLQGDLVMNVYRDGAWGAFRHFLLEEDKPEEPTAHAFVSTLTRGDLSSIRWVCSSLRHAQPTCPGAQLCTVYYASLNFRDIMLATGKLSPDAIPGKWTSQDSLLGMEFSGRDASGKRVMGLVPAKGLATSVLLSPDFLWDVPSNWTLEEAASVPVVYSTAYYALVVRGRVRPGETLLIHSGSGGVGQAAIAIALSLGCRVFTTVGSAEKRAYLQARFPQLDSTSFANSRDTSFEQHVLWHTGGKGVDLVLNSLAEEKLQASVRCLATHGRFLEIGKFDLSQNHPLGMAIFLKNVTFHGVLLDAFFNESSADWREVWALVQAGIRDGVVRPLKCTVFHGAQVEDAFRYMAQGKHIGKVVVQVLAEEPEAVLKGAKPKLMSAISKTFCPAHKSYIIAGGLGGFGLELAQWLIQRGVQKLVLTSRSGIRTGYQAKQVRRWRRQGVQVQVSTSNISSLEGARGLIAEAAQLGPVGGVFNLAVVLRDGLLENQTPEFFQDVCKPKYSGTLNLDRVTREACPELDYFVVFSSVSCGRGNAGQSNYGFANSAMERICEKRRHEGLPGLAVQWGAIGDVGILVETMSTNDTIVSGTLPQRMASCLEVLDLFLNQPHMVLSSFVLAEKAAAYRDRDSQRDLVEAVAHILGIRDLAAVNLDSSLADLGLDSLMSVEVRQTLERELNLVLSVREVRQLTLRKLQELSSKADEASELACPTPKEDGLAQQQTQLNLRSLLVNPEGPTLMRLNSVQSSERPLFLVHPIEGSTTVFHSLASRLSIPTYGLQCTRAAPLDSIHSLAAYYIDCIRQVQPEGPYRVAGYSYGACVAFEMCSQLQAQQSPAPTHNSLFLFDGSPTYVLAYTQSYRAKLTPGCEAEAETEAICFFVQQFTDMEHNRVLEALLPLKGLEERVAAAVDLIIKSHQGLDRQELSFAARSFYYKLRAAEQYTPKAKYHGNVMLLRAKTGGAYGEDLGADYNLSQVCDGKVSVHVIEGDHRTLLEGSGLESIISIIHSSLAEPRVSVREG

The assay concerns the target Fatty acid synthase (Homo sapiens) (UniProt P49327). The assay is described as follows: inhibition of human FAS-TE enzyme activity – biochemical, endpoint fluorescence intensity, powder samples, SAR follow-up (AID 652164). The following applies: recombinant FAS-TE, OMFH substrate fluorescence.
Take `CCCCC(=O)Nc1nc(-c2ccc(S(=O)(=O)N3CCOCC3)cc2)cs1`: the pIC50 is 6.26.
Turning to `CC(C)C(=O)Nc1nc(-c2ccc(S(=O)(=O)N3CCCC3)cc2)cs1`, the pIC50 is 6.56.
As to `O=C(Nc1nc(-c2ccc(S(=O)(=O)N3CCCC3)cc2)cs1)C1CCCC1`, the pIC50 is 6.14.
As for `CC1CCN(S(=O)(=O)c2ccc(-c3csc(NC(=O)C(C)C)n3)cc2)CC1`, the pIC50 is 6.18.
On the same count and under the same terms, the figure for `CC(C)CC(=O)Nc1nc(-c2ccc(S(=O)(=O)N3CCOCC3)cc2)cs1` is 4.94.
As to `CCC(=O)Nc1nc(-c2ccc(S(=O)(=O)N3CCOCC3)cc2)cs1`, the pIC50 is 5.34.
In the case of `O=C(Nc1nc(-c2ccc(S(=O)(=O)N3CCOCC3)cc2)cs1)C1CCC1`, the pIC50 was 5.44.
Same read-out and setting: then `CC(C)C(=O)Nc1nc(-c2ccc(S(=O)(=O)N(C)C)cc2)cs1`, with 6.24; and `CCN(CC)S(=O)(=O)c1ccc(-c2csc(NC(=O)C(C)C)n2)cc1`, with 6.55.
On the same count and under the same terms, then `CCC(CC)C(=O)Nc1nc(-c2ccc(S(=O)(=O)N3CCOCC3)cc2)cs1`, with 6.48; and `O=C(Nc1nc(-c2ccc(S(=O)(=O)N3CCCC3)cc2)cs1)C1CC1`, with 6.25.
In the case of `CCN(CC)S(=O)(=O)c1ccc(-c2csc(NC(=O)C3CC3)n2)cc1`, the pIC50 was 5.63.
As for `CCC(C)C(=O)Nc1nc(-c2ccc(S(=O)(=O)N(CC)CC)cc2)cs1` (centres undefined), the negative-log IC50 (pIC50) was 6.52.
Regarding `O=C(Nc1nc(-c2ccc(S(=O)(=O)N3CCCC3)cc2)cs1)C1CCC1`, the pIC50 was 6.40.
In the case of `O=C(Nc1nc(-c2ccc(S(=O)(=O)N3CCOCC3)cc2)cs1)C1CC1`, the pIC50 is 5.28.
As for `CCCCC(=O)Nc1nc(-c2ccc(S(=O)(=O)N3CCSCC3)cc2)cs1`, the pIC50 is 6.15.
`CCC(=O)Nc1nc(-c2ccc(S(=O)(=O)N3CCCC3)cc2)cs1`: the pIC50 is 6.19.
For `CCCCC(=O)Nc1nc(-c2ccc(S(=O)(=O)N3CCC(C)CC3)cc2)cs1`, the pIC50 is 6.30.
Turning to `CCCCC(=O)Nc1nc(-c2ccc(S(=O)(=O)N(CC)CC)cc2)cs1`, the negative-log IC50 (pIC50) is 6.76.
Consider `CCCCC(=O)Nc1nc(-c2ccc(S(=O)(=O)N3CCCC3)cc2)cs1`, for which the pIC50 was 6.70.
On to `CCC(=O)Nc1nc(-c2ccc(S(=O)(=O)N(CC)CC)cc2)cs1`, for which the pIC50 is 5.37.
As to `CC(C)(C)OC(=O)Nc1nc(-c2ccc(S(=O)(=O)N3CCOCC3)cc2)cs1`, the IC50 entry is “inactive”.
On to `CCC(C)C(=O)Nc1nc(-c2ccc(S(=O)(=O)N3CCOCC3)cc2)cs1` (centres undefined), for which the pIC50 is 6.51.
Still for that read-out and setting: then `CCN(CC)S(=O)(=O)c1ccc(-c2csc(NC(=O)C3CCCCC3)n2)cc1`, with 5.53.
